# Measured values reported in US9725449B2, “Tricyclic compounds as anticancer agents” (BRISTOL-MYERS SQUIBB COMPANY, priority 2015, dated 2017).
# Target: BRD4 (Homo sapiens, UniProt O60885)
# Experiment: Time resolved fluorescence resonance energy transfer (TR-FRET) binding assay, bromodomain BRD4
# Details: one of the FRET assays described; read-out: FRET BRD4 IC50
row,SMILES,IC50 [µM]
1,"[2H]C([2H])([2H])c1nnn(C)c1-c1cnc2c3c(Cl)ncc(F)c3n([C@H](c3ccccc3)C3CCOCC3)c2c1 [Example 280, 13-Chloro-10-fluoro-5-[4-(^2H3)methyl-1-methyl-1H-1,2,3-triazol-5-yl]-8-[(S)-oxan-4-yl(phenyl)methyl]-3,8,12-triazatricyclo[7.4.0.0^2,^7]trideca-1(13),2(7),3,5,9,11-hexaene]",< 0.01
2,"[2H]C([2H])([2H])c1nnn(C)c1-c1cnc2c3c(OCC)ncc(S(C)(=O)=O)c3n(C(c3ncccc3F)C3CCOCC3)c2c1 (stereo not shown) [Example 69, 13-Ethoxy-8-[(3-fluoropyridin-2-yl)(oxan-4-yl)methyl]-10-methanesulfonyl-5-[4-(^2H3)methyl-1-methyl-1H-1,2,3-triazol-5-yl]-3,8,12-triazatricyclo[7.4.0.0^2,^7]trideca-1(13),2(7),3,5,9,11-hexaene]",< 1.5
3,"Cc1nnn(C)c1-c1cnc2c3c(OCC4CC4)ncc(S(C)(=O)=O)c3n([C@H](c3ccccc3)C3CCOCC3)c2c1 [Example 101, 13-(Cyclopropylmethoxy)-5-(dimethyl-1H-1,2,3-triazol-5-yl)-10-methanesulfonyl-8-[(S)-oxan-4-yl(phenyl)methyl]-3,8,12-triazatricyclo[7.4.0.0^2,^7]trideca-1(13),2(7),3,5,9,11-hexaene]",< 0.01
4,"Cc1nnn(C)c1-c1cnc2c3c(F)nccc3n([C@H](c3ccccc3)C3CCOCC3)c2c1 [Example 3, 5-(Dimethyl-1H-1,2,3-triazol-5-yl)-13-fluoro-8-[(S)-oxan-4-yl(phenyl)methyl]-3,8,12-triazatricyclo[7.4.0.0^2,^7]trideca-1(13),2(7),3,5,9,11-hexaene]",< 0.01
5,"Cc1nnn(C)c1-c1cnc2c3ccc(Cl)nc3n([C@H](c3ccccc3F)C3CCOCC3)c2c1 [Example 226, 11-Chloro-5-(dimethyl-1H-1,2,3-triazol-5-yl)-8-[(S)-(2-fluorophenyl)(oxan-4-yl)methyl]-3,8,10-triazatricyclo[7.4.0.0^2,^7]trideca-1(13),2(7),3,5,9,11-hexaene]",< 0.01
6,"COc1ncc(S(=O)(=O)CC2(O)COC2)c2c1c1ncc(-c3c(C)nnn3C)cc1n2[C@H](c1ccccc1)C1CCOCC1 [Example 106, 3-({[5-(Dimethyl-1H-1,2,3-triazol-5-yl)-13-methoxy-8-[(S)-oxan-4-yl(phenyl)methyl]-3,8,12-triazatricyclo[7.4.0.0^2,^7]trideca-1(13),2(7),3,5,9,11-hexaen-10-yl]sulfonyl}methyl)oxetan-3-ol]",< 0.01
7,"Cc1nnn(C)c1-c1cnc2c3ccc(N4CCN(S(=O)(=O)N(C)C)CC4)nc3n([C@H](c3ccccc3F)C3CCOCC3)c2c1 [Example 269, 4-[5-(Dimethyl-1H-1,2,3-triazol-5-yl)-8-[(S)-(2-fluorophenyl)(oxan-4-yl)methyl]-3,8,10-triazatricyclo[7.4.0.0^2,^7]trideca-1(13),2(7),3,5,9,11-hexaen-11-yl]-N,N-dimethylpiperazine-1-sulfonamide]",< 0.001
8,Cc1cc([C@H](C2CCOCC2)n2c3cc(-c4c(C)nnn4C)ncc3c3ncc(C(C)(C)O)cc32)no1 [Example 365],< 0.01
9,"[2H]C([2H])([2H])c1nnn(C)c1-c1cnc2c3ccc(N4CCNCC4)nc3n([C@H](c3ccccc3)C3CCOCC3)c2c1 [Example 251, 5-[4-(^2H3)Methyl-1-methyl-1H-1,2,3-triazol-5-yl]-8-[(S)-oxan-4-yl(phenyl)methyl]-11-(piperazin-1-yl)-3,8,10-triazatricyclo[7.4.0.0^2,^7]trideca-1(13),2(7),3,5,9,11-hexaene]",< 0.01
10,"Cc1nnn(C)c1-c1cnc2c3ccc(N4CCN(S(C)(=O)=O)CC4)nc3n([C@H](c3ccccc3)C3CCOCC3)c2c1 [Example 188, 5-(Dimethyl-1H-1,2,3-triazol-5-yl)-11-(4-methanesulfonylpiperazin-1-yl)-8-[(S)-oxan-4-yl(phenyl)methyl]-3,8,10-triazatricyclo[7.4.0.0^2,^7]trideca-1(9),2(7),3,5,10,12-hexaene]",< 0.001
11,"[2H]C([2H])([2H])c1nnn(C)c1-c1cnc2c3c(NCC(F)(F)F)nccc3n([C@H](c3ccccc3)C3CCOCC3)c2c1 [Example 134, 5-[4-(^2H3)Methyl-1-methyl-1H-1,2,3-triazol-5-yl]-8-[(S)-oxan-4-yl(phenyl)methyl]-N-(2,2,2-trifluoroethyl)-3,8,12-triazatricyclo[7.4.0.0^2,^7]trideca-1(13),2(7),3,5,9,11-hexaen-13-amine]",< 0.001
12,"COc1ccc2c3ncc(-c4c(C)nnn4C)cc3n(C(c3cccc(F)c3F)C3CCOCC3)c2n1 (racemic) [Example 17, 8-[(2,3-Difluorophenyl)(oxan-4-yl)methyl]-5-(dimethyl-1H-1,2,3-triazol-5-yl)-11-methoxy-3,8,10-triazatricyclo[7.4.0.0^2,^7]trideca-1(13),2(7),3,5,9,11-hexaene]",< 0.01
13,"[2H]C([2H])([2H])c1nnn(C)c1-c1cnc2c3c(NCC(F)(F)F)cncc3n(C(c3ncccc3F)C3CCOCC3)c2c1 (stereo not shown) [Example 304, 8-[(3-Fluoropyridin-2-yl)(oxan-4-yl)methyl]-5-[4-(^2H3)methyl-1-methyl-1H-1,2,3-triazol-5-yl]-N-(2,2,2-trifluoroethyl)-3,8,11-triazatricyclo[7.4.0.0^2,^7]trideca-1(9),2(7),3,5,10,12-hexaen-13-amine]",< 0.01
14,"[2H]C([2H])([2H])c1nnn(C)c1-c1cnc2c3cnc(Cl)cc3n(C(c3ncccc3F)C3CCOCC3)c2c1 (single isomer, unassigned) [Example 320]",< 1.5
15,"[2H]C([2H])([2H])c1nnn(C)c1-c1cnc2c3c(OC)ncc(S(C)(=O)=O)c3n(C(c3ncccc3F)C3CCC(F)(F)CC3)c2c1 (stereo not shown) [Example 72, 8-[(4,4-Difluorocyclohexyl)(3-fluoropyridin-2-yl)methyl]-10-methanesulfonyl-13-methoxy-5-[4-(^2H3)methyl-1-methyl-1H-1,2,3-triazol-5-yl]-3,8,12-triazatricyclo[7.4.0.0^2,^7]trideca-1(13),2(7),3,5,9,11-hexaene]",< 0.01
16,"C=C(C)c1ccc2c3ncc(-c4c(C)nnn4C)cc3n([C@H](c3ccccc3)C3CCOCC3)c2n1 [Example 161, 5-(Dimethyl-1H-1,2,3-triazol-5-yl)-8-[(S)-oxan-4-yl(phenyl)methyl]-11-(prop-1-en-2-yl)-3,8,10-triazatricyclo[7.4.0.0^2,^7]trideca-1(9),2(7),3,5,10,12-hexaene]",< 0.01
17,"Cc1nnn(C)c1-c1cnc2c3ccc(NS(C)(=O)=O)nc3n([C@H](c3ccccc3F)C3CCOCC3)c2c1 [Example 240, N-[5-(Dimethyl-1H-1,2,3-triazol-5-yl)-8-[(S)-(2-fluorophenyl)(oxan-4-yl)methyl]-3,8,10-triazatricyclo[7.4.0.0^2,^7]trideca-1(13),2(7),3,5,9,11-hexaen-11-yl]methanesulfonamide]",< 0.01
18,Cc1noc(C)c1-c1cnc2c3cnc(C(C)(C)O)cc3n([C@H](c3ncccc3F)C3CCOCC3)c2c1 [Example 338],< 0.01
19,"[2H]C([2H])([2H])c1nnn(C)c1-c1cnc2c3cc(C(C)(C)O)cnc3n([C@H](c3ccccc3)C3CCOCC3)c2c1 [Example 349, 2-{5-[4-(^2H3)Methyl-1-methyl-1H-1,2,3-triazol-5-yl]-8-[(S)-oxan-4-yl(phenyl)methyl]-3,8,10-triazatricyclo[7.4.0.0^2,^7]trideca-1(13),2(7),3,5,9,11-hexaen-12-yl}propan-2-ol]",< 0.001
20,"COc1ncc(S(C)(=O)=O)c2c1c1ncc(-c3c(C)noc3C)cc1n2[C@H](c1ccccc1)C1CCOCC1 [Example 45, 5-(Dimethyl-1,2-oxazol-4-yl)-10-methanesulfonyl-13-methoxy-8-[(S)-oxan-4-yl(phenyl)methyl]-3,8,12-triazatricyclo[7.4.0.0^2,^7]trideca-1(13),2(7),3,5,9,11-hexaene]",< 0.001
21,"Cc1noc(C)c1-c1cnc2c3c(NS(C)(=O)=O)ncc(S(C)(=O)=O)c3n([C@H](c3ccccc3)C3CCOCC3)c2c1 [Example 102, N-[5-(Dimethyl-1,2-oxazol-4-yl)-10-methanesulfonyl-8-[(S)-oxan-4-yl(phenyl)methyl]-3,8,12-triazatricyclo[7.4.0.0^2,^7]trideca-1(13),2(7),3,5,9,11-hexaen-13-yl]methanesulfonamide]",< 0.01
22,"[2H]C([2H])([2H])c1nnn(C)c1-c1cnc2c3cnc(C(C)(C)O)cc3n(C(CCC)c3ncccc3F)c2c1 (stereo not shown) [Example 360, 2-{8-[1-(3-Fluoropyridin-2-yl)butyl]-5-[4-(^2H3)methyl-1-methyl-1H-1,2,3-triazol-5-yl]-3,8,12-triazatricyclo[7.4.0.0^2,^7]trideca-1(13),2(7),3,5,9,11-hexaen-11-yl}propan-2-ol]",< 0.01
23,"[2H]C([2H])([2H])c1nnn(C)c1-c1cnc2c3cnc(C(C)(C)O)cc3n(C(CCC)c3ncccc3F)c2c1 (stereo not shown) [Example 359, 2-{8-[1-(3-Fluoropyridin-2-yl)butyl]-5-[4-(^2H3)methyl-1-methyl-1H-1,2,3-triazol-5-yl]-3,8,12-triazatricyclo[7.4.0.0^2,^7]trideca-1(13),2(7),3,5,9,11-hexaen-11-yl}propan-2-ol]",< 0.01
24,"[2H]C([2H])([2H])c1nnn(C)c1-c1cnc2c3c(OC4COC4)ncc(S(C)(=O)=O)c3n([C@H](c3ccccc3)C3CCOCC3)c2c1 [Example 111, 10-Methanesulfonyl-5-[4-(^2H3)methyl-1-methyl-1H-1,2,3-triazol-5-yl]-8-[(S)-oxan-4-yl(phenyl)methyl]-13-(oxetan-3-yloxy)-3,8,12-triazatricyclo[7.4.0.0^2,^7]trideca-1(13),2(7),3,5,9,11-hexaene]",< 0.01
25,"Cc1nnn(C)c1-c1cnc2c3c(F)ncc(Cl)c3n([C@H](c3ccccc3)C3CCOCC3)c2c1 [Example 37, 10-Chloro-5-(dimethyl-1H-1,2,3-triazol-5-yl)-13-fluoro-8-[(S)-oxan-4-yl(phenyl)methyl]-3,8,12-triazatricyclo[7.4.0.0^2,^7]trideca-1(13),2(7),3,5,9,11-hexaene]",< 0.01
